Assay results reported in paper PMC5218480 (PLoS ONE, 2017).

Tested on: MV-4-11 cells
Test: Gene expression microarray analysis (Affymetrix PrimeView) and GSEA
Assay type: cell-based, human
Parameters: RFU PODN (11730768_x_at) / Fold change /veh PODN (11730768_x_at) / RFU LINC00158 (11744669_a_at) / Fold change /veh LINC00158 (11744669_a_at) / RFU DUSP10 (11751237_a_at) / Fold change /veh DUSP10 (11751237_a_at) / RFU ID3 (11757404_x_at) / Fold change /veh ID3 (11757404_x_at) / RFU PLEKHG5 (11737974_s_at) / Fold change /veh PLEKHG5 (11737974_s_at) / RFU LRRC4B (11730491_at) / Fold change /veh LRRC4B (11730491_at) / RFU GIMAP4 (11747438_a_at) / Fold change /veh GIMAP4 (11747438_a_at) / RFU KRT8 (11758183_x_at) / Fold change /veh KRT8 (11758183_x_at) / RFU CNN1 (11734310_a_at) / Fold change /veh CNN1 (11734310_a_at) / RFU VPS37D (11726825_at) / Fold change /veh VPS37D (11726825_at) / RFU C10orf10 (11716522_x_at) / Fold change /veh C10orf10 (11716522_x_at) / RFU KIR2DL2 /// KIR2DL4 /// KIR2DL5A /// KIR2DL5B /// KIR2DS1 /// KIR2DS2 /// KIR2DS3 /// KIR2DS4 /// KIR3DL3 /// KIR3DL3 /// KIR3DS1 (11738374_at) / Fold change /veh KIR2DL2 /// KIR2DL4 /// KIR2DL5A /// KIR2DL5B /// KIR2DS1 /// KIR2DS2 /// KIR2DS3 /// KIR2DS4 /// KIR3DL3 /// KIR3DL3 /// KIR3DS1 (11738374_at) / RFU C1QL1 (11718748_at) / Fold change /veh C1QL1 (11718748_at) / RFU TMPRSS4 (11747572_a_at) / Fold change /veh TMPRSS4 (11747572_a_at) / RFU HAMP (11756126_x_at) / Fold change /veh HAMP (11756126_x_at) / RFU RNFT2 (11725882_a_at) / Fold change /veh RNFT2 (11725882_a_at) / RFU NR4A2 (11747474_a_at) / Fold change /veh NR4A2 (11747474_a_at) / RFU ABCC12 (11746883_a_at) / Fold change /veh ABCC12 (11746883_a_at) / RFU TMEM136 (11760407_x_at) / Fold change /veh TMEM136 (11760407_x_at) / RFU CLDN22 /// WWC2 (11732394_at) / Fold change /veh CLDN22 /// WWC2 (11732394_at) / RFU HLA-DPB1 (11760878_x_at) / Fold change /veh HLA-DPB1 (11760878_x_at) / RFU SPINT1 (11716480_a_at) / Fold change /veh SPINT1 (11716480_a_at) / RFU GAP43 (11754022_s_at) / Fold change /veh GAP43 (11754022_s_at) / RFU A4GNT (11735810_at) / Fold change /veh A4GNT (11735810_at) / RFU PRB3 (11715151_x_at) / Fold change /veh PRB3 (11715151_x_at) / RFU TUBB4B (11761932_at) / Fold change /veh TUBB4B (11761932_at) / RFU CAPN14 (11732068_a_at) / Fold change /veh CAPN14 (11732068_a_at) / RFU TMCC2 (11721928_a_at) / Fold change /veh TMCC2 (11721928_a_at) / RFU IRGQ (11745062_a_at) / Fold change /veh IRGQ (11745062_a_at) / RFU FAM174B (11720279_a_at) / Fold change /veh FAM174B (11720279_a_at) / RFU TMPRSS4 (11748680_a_at) / Fold change /veh TMPRSS4 (11748680_a_at) / RFU FAM212B (11763350_a_at) / Fold change /veh FAM212B (11763350_a_at) / RFU PLEKHG5 (11743358_a_at) / Fold change /veh PLEKHG5 (11743358_a_at) / RFU ZSCAN30 (11745921_a_at) / Fold change /veh ZSCAN30 (11745921_a_at) / RFU CMKLR1 (11741424_a_at) / Fold change /veh CMKLR1 (11741424_a_at) / RFU LOC101060620 /// MAPK8IP1 (11723275_at) / Fold change /veh LOC101060620 /// MAPK8IP1 (11723275_at) / RFU SPTSSB (11747773_x_at) / Fold change /veh SPTSSB (11747773_x_at) / RFU PRSS12 (11739890_at) / Fold change /veh PRSS12 (11739890_at) / RFU BIN1 (11741810_x_at) / Fold change /veh BIN1 (11741810_x_at) / RFU WNT11 (11732464_a_at) / Fold change /veh WNT11 (11732464_a_at) / RFU C10orf10 (11716521_a_at) / Fold change /veh C10orf10 (11716521_a_at) / RFU C5orf56 (11738089_at) / Fold change /veh C5orf56 (11738089_at) / RFU CYB561 (11721691_x_at) / Fold change /veh CYB561 (11721691_x_at) / RFU ANKRD19P (11752326_a_at) / Fold change /veh ANKRD19P (11752326_a_at) / RFU OR2T12 /// OR2T33 /// OR2T8 (11738714_s_at) / Fold change /veh OR2T12 /// OR2T33 /// OR2T8 (11738714_s_at) / RFU VCAN (11748164_a_at) / Fold change /veh VCAN (11748164_a_at) / RFU JSRP1 (11732532_at) / Fold change /veh JSRP1 (11732532_at) / RFU KRTAP10-11 (11738290_x_at) / Fold change /veh KRTAP10-11 (11738290_x_at) / RFU MYO3A (11730013_a_at) / Fold change /veh MYO3A (11730013_a_at) / RFU EBF3 (11725865_a_at) / Fold change /veh EBF3 (11725865_a_at) / RFU CAMK2N1 (11719241_x_at) / Fold change /veh CAMK2N1 (11719241_x_at) / RFU C5orf56 (11738088_a_at) / Fold change /veh C5orf56 (11738088_a_at) / RFU OLFML3 (11715873_a_at) / Fold change /veh OLFML3 (11715873_a_at) / RFU LOC100653217 /// NTM (11731650_a_at) / Fold change /veh LOC100653217 /// NTM (11731650_a_at) / RFU MAPK11 (11762145_a_at) / Fold change /veh MAPK11 (11762145_a_at) / RFU FIZ1 (11724087_x_at) / Fold change /veh FIZ1 (11724087_x_at) / RFU OASL (11726364_x_at) / Fold change /veh OASL (11726364_x_at) / RFU SOX15 (11748057_x_at) / Fold change /veh SOX15 (11748057_x_at) / RFU CD79A (11719716_a_at) / Fold change /veh CD79A (11719716_a_at) / RFU HIST1H1D (11736915_at) / Fold change /veh HIST1H1D (11736915_at) / RFU CASKIN2 (11723855_a_at) / Fold change /veh CASKIN2 (11723855_a_at) / RFU LOC730098 (11760151_x_at) / Fold change /veh LOC730098 (11760151_x_at) / RFU OR4N2 (11742367_at) / Fold change /veh OR4N2 (11742367_at) / RFU PRRT2 (11749266_a_at) / Fold change /veh PRRT2 (11749266_a_at) / RFU SNX32 (11753110_a_at) / Fold change /veh SNX32 (11753110_a_at) / RFU CDHR5 (11726645_a_at) / Fold change /veh CDHR5 (11726645_a_at) / RFU RCAN1 (11760418_a_at) / Fold change /veh RCAN1 (11760418_a_at) / RFU FAM167A (11723789_a_at) / Fold change /veh FAM167A (11723789_a_at) / RFU FAM26E (11764081_at) / Fold change /veh FAM26E (11764081_at) / RFU ISYNA1 (11749810_s_at) / Fold change /veh ISYNA1 (11749810_s_at) / RFU ACY1 (11761880_at) / Fold change /veh ACY1 (11761880_at) / RFU 11764098_at / Fold change /veh 11764098_at / RFU SAMD14 (11745864_x_at) / Fold change /veh SAMD14 (11745864_x_at) / RFU NPB (11741838_a_at) / Fold change /veh NPB (11741838_a_at) / RFU TMPRSS6 (11731388_a_at) / Fold change /veh TMPRSS6 (11731388_a_at) / RFU KRTAP10-2 (11738614_at) / Fold change /veh KRTAP10-2 (11738614_at) / RFU ARHGAP8 /// PRR5-ARHGAP8 (11727945_x_at) / Fold change /veh ARHGAP8 /// PRR5-ARHGAP8 (11727945_x_at) / RFU KRTAP5-7 /// NADSYN1 (11734609_at) / Fold change /veh KRTAP5-7 /// NADSYN1 (11734609_at) / RFU RASL12 (11751679_a_at) / Fold change /veh RASL12 (11751679_a_at) / RFU CDKN2B (11736163_a_at) / Fold change /veh CDKN2B (11736163_a_at) / RFU PRF1 (11729649_at) / Fold change /veh PRF1 (11729649_at) / RFU, ZNF638 /// ZNF638-IT1 / Fold change vs veh, ZNF638 /// ZNF638-IT1 / RFU, PANK3 / Fold change vs veh, PANK3 / RFU, SH3YL1 / Fold change vs veh, SH3YL1 / RFU, ZEB2 / Fold change vs veh, ZEB2 / RFU, NRIP1 / Fold change vs veh, NRIP1 / RFU, PTTG1IP / Fold change vs veh, PTTG1IP / RFU, CAPN2 / Fold change vs veh, CAPN2 / RFU, MED14 / Fold change vs veh, MED14 / RFU, SNORA58 / Fold change vs veh, SNORA58 / RFU, C1orf63 / Fold change vs veh, C1orf63 / RFU, LRRFIP1 / Fold change vs veh, LRRFIP1 / RFU, NDUFAF7 / Fold change vs veh, NDUFAF7 / RFU, SLC12A2 / Fold change vs veh, SLC12A2 / RFU, IBTK / Fold change vs veh, IBTK / RFU, ESF1 / Fold change vs veh, ESF1 / Fold change vs veh, TMEM50B / RFU, TAOK1 / Fold change vs veh, TAOK1 / RFU, ACBD3 / Fold change vs veh, ACBD3 / RFU, TMA16 / Fold change vs veh, TMA16 / RFU, RWDD3 / Fold change vs veh, RWDD3 / RFU, BCAT1 / Fold change vs veh, BCAT1 / RFU, EDEM3 / Fold change vs veh, EDEM3 / RFU, TMEM33 / Fold change vs veh, TMEM33 / RFU, WDR75 / Fold change vs veh, WDR75 / RFU, AHCTF1 / Fold change vs veh, AHCTF1 / RFU, TFRC / Fold change vs veh, TFRC / RFU, ZDHHC17 / Fold change vs veh, ZDHHC17 / RFU, NOM1 / Fold change vs veh, NOM1 / RFU, ARL8B / Fold change vs veh, ARL8B / RFU, ZBTB11 / Fold change vs veh, ZBTB11 / RFU, TAMM41 / Fold change vs veh, TAMM41 / RFU, KIAA1704 /// LOC100996395 / Fold change vs veh, KIAA1704 /// LOC100996395 / RFU, ING1 / Fold change vs veh, ING1 / RFU, TRMT61B / Fold change vs veh, TRMT61B / RFU, FUBP3 / Fold change vs veh, FUBP3 / RFU, TP53 / Fold change vs veh, TP53 / RFU, TNKS2 / Fold change vs veh, TNKS2 / RFU, ZFP14 / Fold change vs veh, ZFP14 / RFU, ACTR2 / Fold change vs veh, ACTR2 / RFU, PPP3R1 / Fold change vs veh, PPP3R1 / RFU, PIK3R1 / Fold change vs veh, PIK3R1 / RFU, HNRNPA1 / Fold change vs veh, HNRNPA1 / RFU, RNF170 / Fold change vs veh, RNF170 / RFU, ZNF28 / Fold change vs veh, ZNF28 / RFU, RNGTT / Fold change vs veh, RNGTT / RFU, OGT / Fold change vs veh, OGT / RFU, BRD1 / Fold change vs veh, BRD1 / RFU, MARS / Fold change vs veh, MARS / RFU, ZNF655 / Fold change vs veh, ZNF655 / RFU, FAHD1 / Fold change vs veh, FAHD1 / RFU, BDP1 / Fold change vs veh, BDP1 / RFU, LRRCC1 / Fold change vs veh, LRRCC1 / RFU, ARID1A / Fold change vs veh, ARID1A / RFU, ZNF146 / Fold change vs veh, ZNF146 / RFU, ZNF330 / Fold change vs veh, ZNF330 / RFU, GPN3 / Fold change vs veh, GPN3 / RFU, C9orf123 / Fold change vs veh, C9orf123 / RFU, N4BP2L2 / Fold change vs veh, N4BP2L2 / RFU, ARFIP1 / Fold change vs veh, ARFIP1 / RFU, FAM179B / Fold change vs veh, FAM179B / RFU, BCL10 / Fold change vs veh, BCL10 / RFU, UHRF1BP1L / Fold change vs veh, UHRF1BP1L / RFU, BET1 / Fold change vs veh, BET1 / RFU, CNOT2 / Fold change vs veh, CNOT2 / RFU, ZNF268 / Fold change vs veh, ZNF268 / Fold change vs veh, ZNF507 / RFU, DGCR2 / Fold change vs veh, DGCR2 / RFU, WDSUB1 / Fold change vs veh, WDSUB1 / Fold change vs veh, HSP90B1 /// MIR3652 / RFU, ADSS / Fold change vs veh, ADSS / RFU, GK / Fold change vs veh, GK / RFU, ZNF148 / Fold change vs veh, ZNF148 / RFU, TAF9 / Fold change vs veh, TAF9 / RFU, SLC1A5 / Fold change vs veh, SLC1A5 / RFU, SLMO2 / Fold change vs veh, SLMO2 / RFU, ABCC4 / Fold change vs veh, ABCC4 / RFU, LOC101060439 /// RAP1B / Fold change vs veh, LOC101060439 /// RAP1B / RFU, RFX7 / Fold change vs veh, RFX7 / RFU, GTPBP10 / Fold change vs veh, GTPBP10 / RFU, CNEP1R1 / Fold change vs veh, CNEP1R1 / RFU, BIVM-ERCC5 /// ERCC5 / Fold change vs veh, BIVM-ERCC5 /// ERCC5 / RFU, ILF3 / Fold change vs veh, ILF3 / RFU 11762660_at / Fold change /veh 11762660_at / RFU VCAN (11757783_s_at) / Fold change /veh VCAN (11757783_s_at) / RFU DDX43 (11728927_at) / Fold change /veh DDX43 (11728927_at) / RFU KRT8 (11758188_x_at) / Fold change /veh KRT8 (11758188_x_at) / RFU NKD1 (11759106_at) / Fold change /veh NKD1 (11759106_at) / RFU SRD5A1 (11742802_a_at) / Fold change /veh SRD5A1 (11742802_a_at) / RFU TPSAB1 /// TPSB2 (11721975_s_at) / Fold change /veh TPSAB1 /// TPSB2 (11721975_s_at) / RFU GSTM3 (11746129_a_at) / Fold change /veh GSTM3 (11746129_a_at) / RFU IL23R (11737362_x_at) / Fold change /veh IL23R (11737362_x_at) / RFU TMEM51 (11727254_a_at) / Fold change /veh TMEM51 (11727254_a_at) / RFU PIWIL2 (11732686_x_at) / Fold change /veh PIWIL2 (11732686_x_at) / RFU ORM1 (11744905_x_at) / Fold change /veh ORM1 (11744905_x_at) / RFU CCDC152 (11743942_at) / Fold change /veh CCDC152 (11743942_at) / RFU ECM1 (11717891_a_at) / Fold change /veh ECM1 (11717891_a_at) / RFU IL23R (11748794_a_at) / Fold change /veh IL23R (11748794_a_at) / RFU TNFAIP8L3 (11732012_x_at) / Fold change /veh TNFAIP8L3 (11732012_x_at) / RFU MBOAT4 (11741988_at) / Fold change /veh MBOAT4 (11741988_at) / RFU 11764193_at / Fold change /veh 11764193_at / RFU TMEM53 (11763286_at) / Fold change /veh TMEM53 (11763286_at) / RFU MAGEB2 (11727129_at) / Fold change /veh MAGEB2 (11727129_at) / RFU TMEM200A (11744735_a_at) / Fold change /veh TMEM200A (11744735_a_at) / RFU CCDC152 (11751479_a_at) / Fold change /veh CCDC152 (11751479_a_at) / RFU FAM211A (11726209_a_at) / Fold change /veh FAM211A (11726209_a_at) / RFU RGS16 (11746705_a_at) / Fold change /veh RGS16 (11746705_a_at) / RFU VCAN (11755009_s_at) / Fold change /veh VCAN (11755009_s_at) / RFU RHOB (11743442_s_at) / Fold change /veh RHOB (11743442_s_at) / RFU RGS16 (11720943_a_at) / Fold change /veh RGS16 (11720943_a_at) / RFU RGS16 (11720944_at) / Fold change /veh RGS16 (11720944_at) / RFU, VPS4B / Fold change vs veh, VPS4B / RFU, CREB1 / Fold change vs veh, CREB1 / RFU, DNAJC13 / Fold change vs veh, DNAJC13 / RFU, GNAQ / Fold change vs veh, GNAQ / RFU, CDK5R1 / Fold change vs veh, CDK5R1 / RFU, ZRANB3 / Fold change vs veh, ZRANB3 / RFU, CUL4A / Fold change vs veh, CUL4A / RFU, CCNY / Fold change vs veh, CCNY / RFU, UFL1 / Fold change vs veh, UFL1 / RFU, COG3 / Fold change vs veh, COG3 / RFU, DIAPH2 / Fold change vs veh, DIAPH2 / RFU, SKA2 / Fold change vs veh, SKA2 / RFU, AFF3 / Fold change vs veh, AFF3 / RFU, LMF1 / Fold change vs veh, LMF1 / RFU, IPO11 / Fold change vs veh, IPO11 / RFU, DFFB / Fold change vs veh, DFFB / RFU, FOXP1 / Fold change vs veh, FOXP1 / RFU, CARD8 / Fold change vs veh, CARD8 / RFU, STRN3 / Fold change vs veh, STRN3 / RFU, ADK / Fold change vs veh, ADK / RFU, RASSF2 / Fold change vs veh, RASSF2 / RFU, WIPF1 / Fold change vs veh, WIPF1 / RFU, LARP1B / Fold change vs veh, LARP1B / RFU, RASA1 / Fold change vs veh, RASA1 / RFU, RB1 / Fold change vs veh, RB1 / RFU, PPFIA1 / Fold change vs veh, PPFIA1 / RFU, MAT2A / Fold change vs veh, MAT2A / RFU, CCT5 / Fold change vs veh, CCT5 / RFU, WDR92 / Fold change vs veh, WDR92 / RFU, CUX1 / Fold change vs veh, CUX1 / RFU, TTC7A / Fold change vs veh, TTC7A / RFU, TMEM135 / Fold change vs veh, TMEM135 / RFU, DEPTOR / Fold change vs veh, DEPTOR / RFU, CPM / Fold change vs veh, CPM / RFU, DNAJB6 / Fold change vs veh, DNAJB6 / RFU, CACNA2D3 / Fold change vs veh, CACNA2D3 / RFU, DTX4 / Fold change vs veh, DTX4 / RFU, TFCP2 / Fold change vs veh, TFCP2 / RFU, GMCL1 /// GMCL1P1 / Fold change vs veh, GMCL1 /// GMCL1P1 / RFU, AEBP2 / Fold change vs veh, AEBP2 / RFU, SNHG1 /// SNORD22 /// SNORD25 /// SNORD26 /// SNORD27 /// SNORD28 /// SNORD29 /// SNORD31 / Fold change vs veh, SNHG1 /// SNORD22 /// SNORD25 /// SNORD26 /// SNORD27 /// SNORD28 /// SNORD29 /// SNORD31 / Fold change (Aza/veh), C12orf56 (ProbeSet 11735607_a_at) / Fold change (ACY-1035/veh), C12orf56 (ProbeSet 11735607_a_at) / Fold change (Aza/veh), FGFR1OP (ProbeSet 11751329_s_at) / Fold change (ACY-1035/veh), FGFR1OP (ProbeSet 11751329_s_at) / Fold change (Aza/veh), VPS36 (ProbeSet 11739960_a_at) / Fold change (ACY-1035/veh), VPS36 (ProbeSet 11739960_a_at) / RFU SYPL1 (11715823_x_at) / Fold change /veh SYPL1 (11715823_x_at) / RFU IGFBP7 (11715501_s_at) / Fold change /veh IGFBP7 (11715501_s_at) / RFU REEP3 (11722064_at) / Fold change /veh REEP3 (11722064_at) / RFU IGLL1 (11728026_x_at) / Fold change /veh IGLL1 (11728026_x_at): dose or concentration left out as unconfirmed
Settings: ProbeSet 11727641_at; LIST B

In the case of `Nc1ccc(-c2cccs2)cc1NC(=O)c1ccc2c(c1)cc(C1CC1)n2CCN1CCOCC1` [ACY-1035], the “RFU, NOM1” value was 160.01 RFU.
